Experimental data: patent US10953094B2, “Pulse photodynamic treatment of photodamaged skin” (GALDERMA RESEARCH & DEVELOPMENT, priority 2013, dated 2021)

How the values were obtained:
[1] = Pulse time investigation (Method B), PPIX formation in healthy volunteers; type: in vivo, human; details: PPIX formation after 3 hours; pulse times 20, 40, 60, 180 min
Procedure: (§1) The formation of PPIX after 3 hours is seen in FIG. 8, and the relation to inflammation is seen in FIG. 9. […] The results are illustrated in Column 3 in FIGS. 4, 5, 6, and 7. […] Pain level is not changed.
Twenty-four healthy male volunteers of Scandinavian ancestry were included in the study (mean age 30 years, range 20-51). A treatment area was selected on the inside of both forearms of the volunteer. Each treatment area was divided into four minor treatment fields of the size 2×5 cm with at least 3 cm between each field using a prefabricated flexible template. In order to imitate skin lesions all fields were tape stripped 10 times with occlusive dressing before treatment (Tegaderm™ Roll, 3M, Glostrup, Denmark). […]
All fields were covered with light-impermeable, occlusive dressing. […] During and after illumination pain was recorded. […]
5-MAL-induced PpIX fluorescence was depicted non-invasively using a fluorescence camera (Medeikonos AB, Gothenburg, Sweden). The amount of PpIX fluorescence was calculated from the photographs by the program MatLab® (MatLab®, MathWorks, Natic, US). The amount of fluorescence was measured before tape stripping and cream application (baseline) and before and after illumination.
The photo bleaching is then the difference in PpIX fluorescence (AU) calculated from the pre and post illumination images.

[2] = Pulse exposure 30 min (Method A), investigation of efficacy and inflammation; type: in vivo; details: 30 min pulse exposure vs conventional 3-hour exposure
Procedure: as §1

[3] = Same daylight PDT trial, pain VAS and skin reactions 1 week after sessions; type: in vivo, human
Procedure: A double-blind randomized-controlled trial has been conducted to determine whether daylight PDT is an efficient method for treating photodamaged skin. […] Neither the investigator nor the patient knew which agent was administered, as it was applied by a trained professional nurse. To enhance product/placebo penetration a subtle abrasion with sandpaper of the whole face was performed. Also, a sunscreen (Cetaphil Dermacontrol SPF30®) was applied to the entire sun-exposed area including the treatment area in both groups during daylight-PDT, to avoid sunburn. […] Similarly, there were no statistical differences in the effects experimented by patients by patients one week after sessions, and in some of these variables no effect was found depending on each session (below table).

facial photodamage = experiment: Double-blind randomized-controlled trial of daylight PDT, efficacy in facial photodamage; type: in vivo, human
Procedure: A double-blind randomized-controlled trial has been conducted to determine whether daylight PDT is an efficient method for treating photodamaged skin. […] Neither the investigator nor the patient knew which agent was administered, as it was applied by a trained professional nurse. To enhance product/placebo penetration a subtle abrasion with sandpaper of the whole face was performed. Also, a sunscreen (Cetaphil Dermacontrol SPF30®) was applied to the entire sun-exposed area including the treatment area in both groups during daylight-PDT, to avoid sunburn. Efficacy was evaluated after 1 month of the third (last) daylight session.

[4] = reaction 1 week after session 1
[5] = reaction 1 week after session 2
[6] = reaction 1 week after session 3
[7] = out of 30 subjects, 1 month after third daylight session
[8] = specific photodamage severity score, 1 month after third session

Pain level [2]: not changed
inflammation (erythema) [2]: clearly diminishes
Pain VAS score, mean ([3]; after session 1): 0.80
Pain VAS score, median ([3]; after session 1): (0)
Pain VAS score, mean ([3]; after session 2): 0.60
Pain VAS score, median ([3]; after session 2): (0)
Pain VAS score, mean ([3]; after session 3): 1.13
Pain VAS score, median ([3]; after session 3): (0)
Desquamation score 0, % of subjects [3, 4]: (53.3%)
Desquamation score 1, % of subjects [3, 4]: (30%)
Desquamation score 2, % of subjects [3, 4]: (16.7%)
Desquamation score 3, % of subjects [3, 4]: (0%)
Erythema score 0, % of subjects [3, 4]: (66.7%)
Erythema score 1, % of subjects [3, 4]: (26.7%)
Erythema score 2, % of subjects [3, 4]: (6.7%)
Erythema score 3, % of subjects [3, 4]: (0%)
Oedema score 0, % of subjects [3, 4]: (100%)
Oedema score 1, % of subjects [3, 4]: (0%)
Oedema score 2, % of subjects [3, 4]: (0%)
Oedema score 3, % of subjects [3, 4]: (0%)
Oozing score 0, % of subjects [3, 4]: (100%)
Oozing score 1, % of subjects [3, 4]: (0%)
Oozing score 2, % of subjects [3, 4]: (0%)
Oozing score 3, % of subjects [3, 4]: (0%)
Pigmentation score 0, % of subjects [3, 4]: (96.7) %
Pigmentation score 1, % of subjects [3, 4]: (3.3%)
Pigmentation score 2, % of subjects [3, 4]: (0%)
Pigmentation score 3, % of subjects [3, 4]: (0%)
Vesiculation score 0, % of subjects [3, 4]: (100%)
Vesiculation score 1, % of subjects [3, 4]: (0%)
Vesiculation score 2, % of subjects [3, 4]: (0%)
Vesiculation score 3, % of subjects [3, 4]: (0%)
Desquamation score 0, % of subjects [3, 5]: (50%)
Desquamation score 1, % of subjects [3, 5]: (40%)
Desquamation score 2, % of subjects [3, 5]: (10%)
Desquamation score 3, % of subjects [3, 5]: (0%)
Erythema score 0, % of subjects [3, 5]: (63.3%)
Erythema score 1, % of subjects [3, 5]: (36.7%)
Erythema score 2, % of subjects [3, 5]: (0%)
Erythema score 3, % of subjects [3, 5]: (0%)
Oedema score 0, % of subjects [3, 5]: (100%)
Oedema score 1, % of subjects [3, 5]: (0%)
Oedema score 2, % of subjects [3, 5]: (0%)
Oedema score 3, % of subjects [3, 5]: (0%)
Oozing score 0, % of subjects [3, 5]: (100%)
Oozing score 1, % of subjects [3, 5]: (0%)
Oozing score 2, % of subjects [3, 5]: (0%)
Oozing score 3, % of subjects [3, 5]: (0%)
Pigmentation score 0, % of subjects [3, 5]: (96.7%)
Pigmentation score 1, % of subjects [3, 5]: (3.3%)
Pigmentation score 2, % of subjects [3, 5]: (0%)
Pigmentation score 3, % of subjects [3, 5]: (0%)
Vesiculation score 0, % of subjects [3, 5]: (100%)
Vesiculation score 1, % of subjects [3, 5]: (0%)
Vesiculation score 2, % of subjects [3, 5]: (0%)
Vesiculation score 3, % of subjects [3, 5]: (0%)
Desquamation score 0, % of subjects [3, 6]: (50%)
Desquamation score 1, % of subjects [3, 6]: (40%)
Desquamation score 2, % of subjects [3, 6]: (10%)
Desquamation score 3, % of subjects [3, 6]: (0%)
Erythema score 0, % of subjects [3, 6]: (76.7%)
Erythema score 1, % of subjects [3, 6]: (23.3%)
Erythema score 2, % of subjects [3, 6]: (0%)
Erythema score 3, % of subjects [3, 6]: (0%)
Oedema score 0, % of subjects [3, 6]: (100%)
Oedema score 1, % of subjects [3, 6]: (0%)
Oedema score 2, % of subjects [3, 6]: (0%)
Oedema score 3, % of subjects [3, 6]: (0%)
Oozing score 0, % of subjects [3, 6]: (100%)
Oozing score 1, % of subjects [3, 6]: (0%)
Oozing score 2, % of subjects [3, 6]: (0%)
Oozing score 3, % of subjects [3, 6]: (0%)
Pigmentation score 0, % of subjects [3, 6]: (86.7%)
Pigmentation score 1, % of subjects [3, 6]: (13.3%)
Pigmentation score 2, % of subjects [3, 6]: (10%)
Pigmentation score 3, % of subjects [3, 6]: (0%)
Vesiculation score 0, % of subjects [3, 6]: (100%)
Vesiculation score 1, % of subjects [3, 6]: (0%)
Vesiculation score 2, % of subjects [3, 6]: (0%)
Vesiculation score 3, % of subjects [3, 6]: (0%)
Structure (SMILES): COC(=O)CCC(=O)CN [Metvix, methyl aminolevulinate]
pulse exposure time at which PPIX concentration speeds up [1]: 20 to 40 min
facial improvement, number of subjects (facial photodamage; [7]): 14
facial success, number of subjects (facial photodamage; [7]): 11
Coarse lines: failure, % of subjects (facial photodamage; [8]): (30%)
Coarse lines: improvement, % of subjects (facial photodamage; [8]): (50%)
Coarse lines: sucess, % of subjects (facial photodamage; [8]): (20%)
Erythema: failure, % of subjects (facial photodamage; [8]): (20%)
Erythema: improvement, % of subjects (facial photodamage; [8]): (53.3%)
Erythema: sucess, % of subjects (facial photodamage; [8]): (26.7%)
Fine lines: failure, % of subjects (facial photodamage; [8]): (20%)
Fine lines: improvement, % of subjects (facial photodamage; [8]): (43.3%)
Fine lines: sucess, % of subjects (facial photodamage; [8]): (36.7%)
Mottled pigmentation: failure, % of subjects (facial photodamage; [8]): (23.3%)
Mottled pigmentation: improvement, % of subjects (facial photodamage; [8]): (60%)
Mottled pigmentation: sucess, % of subjects (facial photodamage; [8]): (16.7%)
Sallowness: failure, % of subjects (facial photodamage; [8]): (16.7%)
Sallowness: improvement, % of subjects (facial photodamage; [8]): (30%)
Sallowness: sucess, % of subjects (facial photodamage; [8]): (53.3%)
Tactile roughness: failure, % of subjects (facial photodamage; [8]): (16.7%)
Tactile roughness: improvement, % of subjects (facial photodamage; [8]): (20%)
Tactile roughness: sucess, % of subjects (facial photodamage; [8]): (63.3%)
